Data from US11001615B2, “Mutated tau protein fragment and use thereof” (ADEL INC., priority 2016, dated 2021).
Ends that are not written are not given here.

Columns and labels:
Format in all cases: in vivo
[1] = test system: Tau-P301L dementia mice; assay: Antibody distribution in brain tissue (immunohistochemical staining and western blotting for mouse immunoglobulin-G); conditions: after cardiac perfusion
Description: (§1) JNPL3 mice expressing Tau-P301L mutant gene were purchased from Taconic, and back-crossed with C57bl/6 mice for five generations in the experimental animal room of the Asan Institute for Life Sciences. Then, the mice were raised under a specific pathogen free (SPE) condition. For active immunization, the mice were administered, for six months starting from three months after birth at intervals of two weeks, two weeks, four weeks, four weeks, five weeks, four weeks, and one week in this order, the four modified tau protein fragments prepared in Preparation Example 1 together with keyhole limpet hemocyanin (KLH) as a carrier and an aluminum adjuvant. At this time, administration was carried out through intraperitoneal injection (IP injection). The dementia mice which were actively immunized by administration of the K280-ac fragment were designated as Tau-P301L-K280-ac.
In order to identify antibodies in brain tissues of the Tau-P301L-K280-ac dementia mice, the P301L-K280-ac dementia mice, and the normal mice produced in Preparation Example 2, cardiac perfusion was performed with cold physiological saline. Then, the brain tissues were extracted, and immunohistochemical staining and western blotting were performed for mouse immunoglobulin-G.

[2] = test system: Tau-P301L dementia mice; assay: Vertical grid test; conditions: normal mice 10 or shorter, Tau-P301L 5 or shorter
Description: as §1
A vertical grid test was performed on the mice raised in Preparation Example 2. […] Specifically, the mice were placed on the vertical grid device, and allowed to go up and down the vertical grid. The time until the mice dropped down from the grid was measured.

[3] = test system: Tau-P301L dementia mice; assay: Rota-rod test; conditions: 5th day
Description: as §1, with “Tau-P301L-K280-ac. […]” for “Tau-P301L-K280-ac.”
Specifically, the test was intended to measure how long the mice are able to stay on a rotating rotor. The mice were trained for 4 days and a motor ability thereof was measured on the 5th day. The training was repeated three times a day, during which the time to stay on the rotor and the final rpm were measured while increasing the rpm of the rotor. On the 5th day, the experiment was conducted under the same condition except that a result was measured only once without repeating (FIGS. 14 and 15).

[4] = test system: Tau-P301L dementia mice; assay: Nest building test; conditions: Tau-P301L about 50% decrease versus normal mice
Description: as §1
Behavioral experiments were conducted to identify changes in motor ability and cognitive function of the Tau-P301L dementia mice produced in Preparation Example 2. A nest building test which can identify a multimodal brain function of the mice was performed.
Specifically, two-thirds of the litter in a cage where the mice are raised was removed and four layers of sterile cotton (5 cm×5 cm) were placed in the cage. One mouse was allowed to enter one cage. The next morning, a degree of completion of the nest was analyzed.

[5] = test system: Tau-P301L dementia mice; assay: Western blotting of cerebral cortex fractions (tau aggregation-mitigating effect); conditions: cerebral cortex fractions (soluble or insoluble)
Description: as §1
In order to identify a tau aggregation-mitigating effect following administration of the K280-ac fragment, western blotting was performed with the cerebral cortices of the Tau-P301L-K280-ac dementia mice, the P301L-K280-ac dementia mice, and the normal mice produced in Preparation Example 2.

[6] = test system: Tau-P301L dementia mice; assay: Water maze test; conditions: 5th day, platform removed; normal mice about 3, Tau-P301L about 1
Description: as §1
An underwater maze test was performed to evaluate a learning and memory ability of the mice. […] Specifically, the underwater maze test took a total of 5 days. The mice were trained for 4 days in a state where a platform and a visual cue for the platform location are placed.
The learning was conducted by filling a swimming pool (1.4 m in diameter, 45 cm in depth) having a platform with water (29±0.5° C.) to a depth of about 26.5 cm, and then 1.5 L of whole milk powder was added to make water cloudy so that the mice can remember the platform with the cue only. Then, the mice were adapted to freely swim for 60 seconds and allowed to rest on the platform for 1 minute. The experiment was performed over a total of 12 times with 4 sets at three different starting positions. At the end of each test, 30 seconds of break time was given. At the end of one set, 30 to 45 minutes of break time was given.
After 4 days of learning, the test was performed on the 5th day. In the experiment for evaluation, the platform was not placed, and the number of staying in the area where the platform has been placed was measured in order to identify whether the mice visit well the platform location using the cue only. The test time was set for the mice to arrive at the location where the platform had been placed within one minute. If the mice fail to arrive at the platform location within one minute, the mice were removed out of the swimming pool.

[7] = test system: Tau-P301L dementia mice; assay: Western blotting of brain tissues for tau proteins (tauopathy-alleviating effect); conditions: brain tissue
Description: as §1
In order to identify a tauopathy-alleviating effect following administration of the K280-ac fragment, brain tissues of the Tau-P301L-K280-ac dementia mice, the P301L-K280-ac dementia mice, and the normal mice produced in Preparation Example 2 were extracted, and western blotting and immunohistochemical staining were performed.

[8] = test system: Tau-P301L dementia mice; assay: Y-maze experiment; conditions: Tau-P301L 50% decrease in measurement time versus normal mice
Description: as §1
In addition, a Y-maze experiment was performed to identify restoration of cognitive function. Specifically, A, B, and C zones were set in a Y-shaped box, and the mice were allowed to freely move for 5 minutes in a state where the B zone was blocked.

[9] = Antibody production after primary and secondary boosting (vaccine comparison); conditions: compared with N-terminal fragment of tau protein
Description: In addition, in order to identify whether the K280-ac fragment is effective as a vaccine, the N-terminal fragment and the K280-ac fragment of the tau protein having the amino acid sequence represented by SEQ ID NO: 31 were administered, and primary boosting and secondary boosting were performed. Then, these fragments were compared in terms of antibody production.

[10] = test system: Tau-P301L dementia mice; assay: qPCR of brain tissues for inflammation-related genes; conditions: brain tissue, compared with non-immunized dementia mice
Description: as §1
In order to identify an inflammation-improving effect following administration of the K280-ac fragment, brain tissues of the Tau-P301L-K280-ac dementia mice, the P301L-K280-ac dementia mice, and the normal mice produced in Preparation Example 2 were extracted, and qPCR was performed for inflammation-related genes.

In the case of “Val-Gln-Ile-Ile-Asn-Lys-Lys-Leu-Asp-Leu-Ser-Asn (VQIINK(Ac)KLDLSN) [K280-ac]”, the “antibodies in brain tissues” value [1] is reported as “antibodies are present”, the “measured time on the vertical grid” value [2] is reported as 10 s and the rota-rod rpm [3] is reported as “increased to levels which correspond to those for the normal mice”. For the same substance, the rota-rod time [3] was “increased to levels which correspond to those for the normal mice”, the building score [4] was “restored to a level which is similar to that in the normal mice” and the acetylated tau proteins [5] was “decreased”. For the same substance, the entire tau protein [5] was “decreased”, the phosphorylated tau proteins [5] was “decreased” and the number of arrivals [6] was “about 3 times”. For the same substance, the acetylated tau proteins [7] was “decrease”, the phosphorylated tau proteins [7] was “decrease” and the “tau proteins in which lysine, the 280th amino acid, is acetylated” value ([7]; Tau-P301L 2-fold increase versus normal mice) was “decreased level of tau proteins which corresponds to that in the normal mice”. For the same substance, the “cognitive function in the Y-maze” value [8] was “restored”, the antibody production [9] was “higher antibody production than the N-terminal fragment” and the IFN-γ gene [10] was “decrease”. The IL-4 gene [10] was “decrease”, the IL-12 gene [10] was “increase” and the IL-22 gene [10] was “decrease”.
